#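 Exposure lasted 48 hours, with cells grown in 96-well plates and compounds tested at five concentrations. Abbreviation: GI50, concentration required for 50% inhibition of growth.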 The source made the active and inactive calls. Rule as the data show it: active = GI50 up to about 1.1 µM and inactive = higher.
# Experiments:
# Experiment in all cases: NCI-60 cell line screen, 48 h
# ACHN = test system: ACHN
# DMS-273 = test system: DMS-273
# HCC 2998 = test system: HCC 2998
# HCT-15 = test system: HCT-15
# HOP-18 = test system: HOP-18
# HOP-92 = test system: HOP-92
# IGROV-1 = test system: IGROV-1
# LOX IMVI = test system: LOX IMVI
# M19-MEL = test system: M19-MEL
# OVCAR-3 = test system: OVCAR-3
# OVCAR-5 = test system: OVCAR-5
# OVCAR-8 = test system: OVCAR-8
# SF-268 = test system: SF-268
# SF-539 = test system: SF-539
# SN12C = test system: SN12C
# SNB-19 = test system: SNB-19
# SR = test system: SR
# SW-620 = test system: SW-620
# U-251 = test system: U-251
# UACC-62 = test system: UACC-62
compound,measurement,setting,value
CCN(CC)CCC(=O)c1ccccc1,GI50,ACHN,16.2 µM (inactive)
same,GI50,DMS-273,18.5 µM (inactive)
same,GI50,HCC 2998,56 µM (inactive)
same,GI50,HCT-15,20.1 µM
same,GI50,HOP-18,15.3 µM (inactive)
same,GI50,HOP-92,13.1 µM (inactive)
same,GI50,IGROV-1,> 100 µM (inactive)
same,GI50,LOX IMVI,19.4 µM (inactive)
same,GI50,M19-MEL,25.6 µM (inactive)
same,GI50,OVCAR-3,18.6 µM (inactive)
same,GI50,OVCAR-5,21.5 µM (inactive)
same,GI50,OVCAR-8,24.2 µM (inactive)
same,GI50,SF-268,17.8 µM (inactive)
same,GI50,SF-539,24.8 µM (inactive)
same,GI50,SN12C,19.3 µM (inactive)
same,GI50,SNB-19,> 100 µM (inactive)
same,GI50,SR,14 µM (inactive)
same,GI50,SW-620,19.6 µM (inactive)
same,GI50,U-251,23.3 µM (inactive)
same,GI50,UACC-62,> 10 µM (inactive)
